Measured values published in patent publication US8697630B2, “Method for lowering insulin resistance” (Nestec S.A., priority 2005, dated 2014).

Legend:
[1] = target: T1, protein tyrosine phosphatase-1B (Homo sapiens, UniProt P18031); conditions: cited from earlier work
T1 sequence (P18031 1-435): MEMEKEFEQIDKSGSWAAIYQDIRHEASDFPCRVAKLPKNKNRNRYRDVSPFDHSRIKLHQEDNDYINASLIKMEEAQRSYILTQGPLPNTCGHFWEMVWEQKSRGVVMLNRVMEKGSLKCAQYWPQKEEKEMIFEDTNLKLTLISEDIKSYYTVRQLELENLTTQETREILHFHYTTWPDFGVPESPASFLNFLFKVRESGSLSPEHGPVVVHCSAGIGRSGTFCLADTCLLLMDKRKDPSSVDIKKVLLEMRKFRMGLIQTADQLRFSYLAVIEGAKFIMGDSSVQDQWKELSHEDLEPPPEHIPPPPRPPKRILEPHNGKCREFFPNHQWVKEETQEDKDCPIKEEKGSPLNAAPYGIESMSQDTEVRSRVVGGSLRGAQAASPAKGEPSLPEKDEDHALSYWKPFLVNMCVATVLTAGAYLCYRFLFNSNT

Zucker fa/fa rats = conditions: 100 mg/kg for 3-weeks; vs control obese rats; cited from earlier work
ApoE (−/−) mice = experiment: Study 14: plasma total cholesterol, retinol, tocopherol; assay type: in vivo; conditions: 0.5 g/kg in 0.08% cholesterol diet vs same diet without statin; 14 weeks
Source text: The objective of this study was to investigate the effect of a statin (Mevacor) on cholesterol levels. Each of three groups of ApoE (−/−) mice was fed one of three diets, each diet containing a different cholesterol level (i.e., 0, 0.4, and 0.8 g/kg). A fourth group was fed the diet containing 0.8 g/kg of cholesterol with the further inclusion of 0.5 g/kg of a statin (i.e., Mevacor).

glucose transporter = target: T2, glucose transporter (Homo sapiens, UniProt P11166); conditions: cited from earlier work
T2 construct: various catechins tested on glucose transport from erythrocytes
T2 sequence (P11166 1-492): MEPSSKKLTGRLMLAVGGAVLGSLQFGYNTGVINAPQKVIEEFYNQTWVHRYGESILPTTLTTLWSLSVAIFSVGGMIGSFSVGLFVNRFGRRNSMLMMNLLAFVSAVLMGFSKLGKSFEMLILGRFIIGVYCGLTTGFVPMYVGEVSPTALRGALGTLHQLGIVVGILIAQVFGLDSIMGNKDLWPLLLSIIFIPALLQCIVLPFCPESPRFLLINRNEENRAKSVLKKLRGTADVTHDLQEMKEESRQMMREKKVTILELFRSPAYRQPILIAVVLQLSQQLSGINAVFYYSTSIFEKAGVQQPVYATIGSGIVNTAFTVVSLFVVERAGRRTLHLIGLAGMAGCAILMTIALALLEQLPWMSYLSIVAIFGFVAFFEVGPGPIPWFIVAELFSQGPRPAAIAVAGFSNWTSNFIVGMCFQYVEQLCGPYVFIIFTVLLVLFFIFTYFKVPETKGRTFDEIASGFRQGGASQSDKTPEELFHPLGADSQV

[2] = 1.5 mmole ingested, cited from earlier work
healthy subjects = conditions: 50 g; cited from earlier work
diabetic subjects = conditions: cited from earlier work; for plasma glucose peak level / time of plasma glucose peak: diabetic subjects; for change in insulin concentration: in vivo
adults = conditions: estimated; cited from earlier work
Wild Type C57BL/6J mice = experiment: Study 2/5: increasing 18:2 PUFA, insulin sensitivity; assay type: in vivo; conditions: 18:2 at 2%, 4%, 6% en; WT mice
Source text: Studies 2 and 5 were combined (n=18) where we compared TYPE B Leptr (−/−) (Study2) with the Wild Type mouse (Study 5) used in the backcross for Leptr (−/−), i.e., C57BL/6J. Here, we also examined the effects of food restriction on TYPE B (which over eat like TYPE A because neither have leptin receptors) and added the design of increasing 18:2 PUFA (increments at 2%, 4%, 6% en) while assessing the insulin sensitivity response. […] They had lower glucose than TYPE A, better insulin testing, yet became obese and insulin resistant, glucose intolerant, etc. […] This was the second clue (after n 3 FA in Study 1) that the type and mass of fatty acid intake can have a big influence on mouse insulin dynamics.

[3] = test system: STZ-induced diabetic rats; conditions: following intravenous insulin tolerance testing; cited from earlier work
Type 2 diabetics = conditions: cited from earlier work
3T3-L1 cells = conditions: 240 nmol/L; cited from earlier work
alloxan diabetic rats = conditions: after six weeks; extract 100 mg/kg; cited from earlier work

methylhydroxychalcone polymer [MHCP]
inhibition of protein tyrosine phosphatase-1B [1]: inhibits

C[C@@H]([C@H](C)O)[C@H](N)C(=O)O [ID-1101, 4-hydroxyisoleucine]
hyperinsulinemia (Zucker fa/fa rats): reduced hyperinsulinemia

CC[C@H](C)C(=O)O[C@H]1C[C@@H](C)C=C2C=C[C@H](C)[C@H](CC[C@@H]3C[C@@H](O)CC(=O)O3)[C@H]21 [statin]
liver, aortal, and plasma cholesterol levels (ApoE (−/−) mice): significant reduction

O=C(O[C@@H]1Cc2c(O)cc(O)cc2O[C@@H]1c1cc(O)c(O)c(O)c1)c1cc(O)c(O)c(O)c1 [EGCG, epigallocatechin gallate]
increase of affinity for the glucose transporter over EGC (glucose transporter): 2 to 4 orders of magnitude | Peak maximum [2]: 1.3 μmol. 1-1 | detection in the urine [2]: not detected | elimination T1/2 ([2]; ten healthy volunteers): 3.9 h

OC[C@H]1O[C@@](CO)(O[C@H]2O[C@H](CO)[C@@H](O)[C@H](O)[C@H]2O)[C@@H](O)[C@@H]1O [sucrose]
blood glucose peak (healthy subjects): 143.3 ± 8.8 mg/dL | time of blood glucose peak (healthy subjects): 30 min | plasma glucose peak level (diabetic subjects): 237 ± 12 mg/dL | time of plasma glucose peak (diabetic subjects): ≤ 60 min | change in insulin concentration (diabetic subjects): 59.3 ± 12 µU/mL

OC[C@H]1O[C@H](OC[C@H]2OC(O)(CO)[C@@H](O)[C@@H]2O)[C@H](O)[C@@H](O)[C@@H]1O (stereo partly shown) [isomaltulose]
blood glucose peak (healthy subjects): 110.9 ± 4.9 mg/dL | time of blood glucose peak (healthy subjects): 60 min | plasma glucose peak level (diabetic subjects): 195 ± 14 mg/dL | time of plasma glucose peak (diabetic subjects): 120 min | change in insulin concentration (diabetic subjects): 41.1 ± 7.4 µU/mL | minimum effect dose (mental concentration) (adults): more than 5 g

CCCCC/C=C\C/C=C\CCCCCCCC(=O)O [18:2, linoleic acid]
sensitivity to insulin (Wild Type C57BL/6J mice): appeared to increase sensitivity to insulin

O=C(O)CCCCC1CCSS1 (stereo not shown) [LA, Lipoic acid]
reduction in the area under the glucose curve [3]: 13% | reduction of lactate and pyruvate after oral glucose loading (Type 2 diabetics; 1200 mg LA (oral) for 4-wks): 45% | improvement of insulin sensitivity (Type 2 diabetics; 600, 1200 and 1800 mg/d oral): 17% | oral dose reported to be safe (Type 2 diabetics; given as 3 doses of 600 mg): up to 1800 mg/d

insulin: insulin
greatest glucose uptake relative to maximum uptake observed with BE (3T3-L1 cells): 2.7 times | decrease in fasting blood glucose (alloxan diabetic rats): -183.1 mg/dL
